Results from US10258235B2, “Method and device for the assessment of bowel function” (Purdue Pharma L.P., priority 2005, dated 2019).
“And” between values parts separate entries of the source, which are not always exact repeats. Identical values can stand only once. “Also recorded” adds a separate entry of the source. Like-named read-outs stand apart in the source and are kept apart here.

Key:
[1] = test system: patients with severe chronic pain of tumor and non-tumor origin; assay: Mean pain (0-100 NAS) during the last 7 days before each visit, clinical Phase II study; format: in vivo, human; conditions: for Mean Pain, Mean V5 / Mean Pain, Mean V3: NAS 0-100; for Mean Pain, Mean V3: end of titration visit (V3, baseline before naloxone)
Description: (§1) The method of the present invention and analog scales of the present invention were employed in a clinical Phase II study conducted in Europe.
(§2) For some analyses, the last observation was carried forward for those ITT subjects who discontinued after Visit 4 (ITT/LOCF). In other instances, only the available data were used (ITT non-missing).
(§3) The Per Protocol (PP) population included all randomized patients who completed the study (including the follow-up phase) without major protocol violations. […] Only deviations from the visit window of the maintenance phase visits (visit 4 and 5) were regarded as major protocol violations. Deviations from the other visits were regarded as minor protocol violations. […] 3. Primary Efficacy Variables
(§4) a) Mean Pain during the last 7 days prior to each visit, based on the patient's twice-daily assessment of pain intensity using the 0-100 numerical analogue scale (NAS) (0=no pain and 100=worst imaginable pain). Mean Pain was calculated for each study visit as the mean value of the daily mean values of all patient's diary entries from the last 7 days. b) Mean bowel function: patient's assessment, at each study visit, of bowel function during the last 7 days prior to each visit. Mean bowel function was calculated from the mean of the three 0-100 NAS scores: ease of defecation (0=easy/no difficulty, 100=severe difficulty), feeling of incomplete bowel evacuation (0=not at all, 100=very strong), and judgment of constipation (0=not at all, 100=very strong). 4. Analgesic Efficacy Results

[2] = test system: patients with severe chronic pain of tumor and non-tumor origin; conditions: for Mean Bowel Function Score, Mean V3: end of titration visit (V3, baseline before naloxone); for mean bowel function (±SD) at Visit 4: Visit 4 (after 1 week of naloxone); for mean bowel function (±SD) at the end of the maintenance phase: PP population
Description: as §1, §2, §3, §4
Mean bowel function was calculated for each study visit from the mean of the three NAS values ease/difficulty of defecation, feeling of incomplete bowel evacuation and judgment of constipation.
In addition, two-sided 95% CIs (CI, confidence interval) for the difference in means between the treatment groups were provided. […] These analyses were performed for the ITT and PP populations.
The parameter estimates derived were taken to display a surface plot of the whole dose range investigated. Moreover, a contour plot of the bowel function with a granulation of 10 was performed.

Q: For C=CCN1CC[C@]23c4c5ccc(O)c4O[C@H]2C(=O)CC[C@@]3(O)[C@H]1C5 [Naloxone, naloxone], which “Mean Pain, Mean V5” value ([1]; ITT non-missing, end of maintenance visit (V5, 4 weeks), naloxone 10 mg/day plus oxycodone 40-80 mg/day) is on record?
A: 37.2

Q: And the “Mean Pain, Mean V5” value ([1]; ITT non-missing, end of maintenance visit (V5, 4 weeks), naloxone 20 mg/day plus oxycodone 40-80 mg/day)?
A: 37.5

Q: What about the “Mean Pain, Mean V5” value ([1]; ITT non-missing, end of maintenance visit (V5, 4 weeks), naloxone 40 mg/day plus oxycodone 40-80 mg/day) of the same molecule?
A: 38.7

Q: What about the “Mean Pain, Mean V3” value ([1]; ITT non-missing, naloxone 10 mg/day group, oxycodone 40-80 mg/day) of the same molecule?
A: 35.9

Q: What about the “Mean Pain, Mean V3” value ([1]; ITT non-missing, naloxone 20 mg/day group, oxycodone 40-80 mg/day) of the same molecule?
A: 39.8

Q: What about the “Mean Pain, Mean V3” value ([1]; ITT non-missing, naloxone 40 mg/day group, oxycodone 40-80 mg/day) of the same molecule?
A: 38.1

Q: And the “Mean Pain, Mean V5” value ([1]; PP, end of maintenance visit (V5), naloxone 10 mg/day plus oxycodone 40-80 mg/day)?
A: 38.8

Q: What about the “Mean Pain, Mean V5” value ([1]; PP, end of maintenance visit (V5), naloxone 20 mg/day plus oxycodone 40-80 mg/day) of the same molecule?
A: 36.1

Q: And the “Mean Pain, Mean V5” value ([1]; PP, end of maintenance visit (V5), naloxone 40 mg/day plus oxycodone 40-80 mg/day)?
A: 38.7

Q: What about the “Mean Pain, Mean V3” value ([1]; PP, naloxone 10 mg/day group) of the same molecule?
A: 38.0

Q: And the “Mean Pain, Mean V3” value ([1]; PP, naloxone 20 mg/day group)?
A: 40.1

Q: What about the “Mean Pain, Mean V3” value ([1]; PP, naloxone 40 mg/day group) of the same molecule?
A: 39.0

Q: What about the “Analgesic efficacy / mean pain, active naloxone versus naloxone placebo (in words)” value ([1]; end of maintenance, naloxone 10-40 mg/day added to oxycodone 40-80 mg/day) of the same molecule?
A: did not point to a difference in analgesic efficacy; also recorded: no evidence of changes in mean pain with varying amounts of naloxone

Q: What about the “Mean Bowel Function Score, Mean V5” value ([2]; ITT (non-missing), end of maintenance (V5, 4 weeks), naloxone 10 mg/day plus oxycodone 40-80 mg/day, NAS 0-100, higher = worse) of the same molecule?
A: 40.3

Q: And the “Mean Bowel Function Score, Mean V5” value ([2]; ITT (non-missing), end of maintenance (V5, 4 weeks), naloxone 10 mg/day plus oxycodone 40-80 mg/day, NAS 0-100, higher = worse, listed as naloxone)?
A: 40.3 (±23.09) and 40.3 (±23.1)

Q: What about the “Mean Bowel Function Score, Mean V5” value ([2]; ITT (non-missing), end of maintenance (V5, 4 weeks), naloxone 20 mg/day plus oxycodone 40-80 mg/day, NAS 0-100, higher = worse) of the same molecule?
A: 31.3

Q: What about the “Mean Bowel Function Score, Mean V5” value ([2]; ITT (non-missing), end of maintenance (V5, 4 weeks), naloxone 20 mg/day plus oxycodone 40-80 mg/day, NAS 0-100, higher = worse, listed as naloxone) of the same molecule?
A: 31.3 (±25.82) and 31.3 (±25.8)

Q: And the “Mean Bowel Function Score, Mean V5” value ([2]; ITT (non-missing), end of maintenance (V5, 4 weeks), naloxone 40 mg/day plus oxycodone 40-80 mg/day, NAS 0-100, higher = worse)?
A: 26.1

Q: What about the “Mean Bowel Function Score, Mean V5” value ([2]; ITT (non-missing), end of maintenance (V5, 4 weeks), naloxone 40 mg/day plus oxycodone 40-80 mg/day, NAS 0-100, higher = worse, listed as naloxone) of the same molecule?
A: 26.1 (±25.08) and 26.1 (±25.1)

Q: What about the “Mean Bowel Function Score, Mean V3” value ([2]; ITT non-missing, naloxone 10 mg/day group, NAS 0-100, higher = worse) of the same molecule?
A: 53.5

Q: And the “Mean Bowel Function Score, Mean V3” value ([2]; ITT non-missing, naloxone 20 mg/day group, NAS 0-100, higher = worse)?
A: 51.3

Q: And the “Mean Bowel Function Score, Mean V3” value ([2]; ITT non-missing, naloxone 40 mg/day group, NAS 0-100, higher = worse)?
A: 48.2

Q: And the “Mean Bowel Function Score, Mean V5” value ([2]; ITT/LOCF, end of maintenance visit (V5), naloxone 10 mg/day plus oxycodone 40-80 mg/day)?
A: 40.1

Q: What about the “Mean Bowel Function Score, Mean V5” value ([2]; ITT/LOCF, end of maintenance visit (V5), naloxone 20 mg/day plus oxycodone 40-80 mg/day) of the same molecule?
A: 33.2

Q: And the “Mean Bowel Function Score, Mean V5” value ([2]; ITT/LOCF, end of maintenance visit (V5), naloxone 40 mg/day plus oxycodone 40-80 mg/day)?
A: 26.5

Q: What about the “Mean Bowel Function Score, Mean V3” value ([2]; ITT/LOCF, naloxone 10 mg/day group) of the same molecule?
A: 53.6

Q: What about the “Mean Bowel Function Score, Mean V3” value ([2]; ITT/LOCF, naloxone 20 mg/day group) of the same molecule?
A: 49.9

Q: And the “Mean Bowel Function Score, Mean V3” value ([2]; ITT/LOCF, naloxone 40 mg/day group)?
A: 47.7

Q: What about the “mean bowel function (±SD) at Visit 4” value ([2]; ITT, naloxone 10 mg/day) of the same molecule?
A: 42.1 (±25.53)

Q: What about the “mean bowel function (±SD) at Visit 4” value ([2]; ITT, naloxone 20 mg/day) of the same molecule?
A: 34.2 (±30.04)

Q: What about the “mean bowel function (±SD) at Visit 4” value ([2]; ITT, naloxone 40 mg/day) of the same molecule?
A: 27.9 (±22.68)

Q: And the “mean bowel function (±SD) at the end of follow-up” value ([2]; ITT, end of two-week follow-up on oxycodone only, former 40 mg naloxone group)?
A: 42.4 (±23.19)

Q: And the “mean bowel function (±SD) at the end of the maintenance phase” value ([2]; naloxone 10 mg/day)?
A: 39.4 (±23.44)

Q: And the “mean bowel function (±SD) at the end of the maintenance phase” value ([2]; naloxone 20 mg/day)?
A: 29.8 (±29.29)

Q: And the “mean bowel function (±SD) at the end of the maintenance phase” value ([2]; naloxone 40 mg/day)?
A: 29.6 (±28.34)

Q: What about the “effect of adding controlled release naloxone to controlled release oxycodone on mean bowel function (in words)” value ([2]; the two higher doses of naloxone (20 mg and 40 mg)) of the same molecule?
A: statistically significant improvement in mean bowel function
